Assay results reported in patent US7238469B2, “Carbon monoxide improves outcomes in tissue and organ transplants and suppresses apoptosis” (priority 2001, dated 2007).

Key:
[1] = tested on: islets transplanted under the kidney capsule of diabetic syngeneic recipients; assay: Syngeneic marginal mass islet transplantation, time to normoglycemia; format: in vivo, C57BL/6 mice; conditions: 250 islets pre-incubated two hours in medium pre-saturated with 1% CO
Procedure: Cells and islets were exposed to 1% carbon monoxide in compressed air balanced with 5% CO2, as described elsewhere (see, e.g., Otterbein et al., Nature Med. 6:422–428, 2000). Islets were incubated in RPMI medium pre-saturated with carbon monoxide (4° C. overnight, 1% CO, 5% CO2) for two hours at 37° C. while treatment with 1% CO, 5% CO2 was continued.
Male C57BL/6 were purchased from Charles River Laboratories (Wilmington, Mass.) and housed in accordance with guidelines from the NIH. The experiments were approved by the Institutional Animal Care and Use Committee (IACUC). Recipient mice (8 weeks old) were rendered diabetic by a single intraperitoneal injection (220 mg/kg) of StreptozotocinO (Sigma) dissolved in citrate buffer. Mice received transplants if 2 consecutive non-fasting blood glucose levels of greater than 350 mg/dl were obtained from a whole blood sample.
250 islets 150–250 îm in diameter were hand-picked using a dissecting microscope. Islets were transplanted under the kidney capsule as described previously (Kaufman et al., J. Exp. Med. 172:291–302, 1990). […]
Whether carbon monoxide pre-incubation of islet grafts prior to transplantation results in better functional performance in vivo was investigated (FIGS. 6A–B). […] After transplantation, blood glucose levels were determined on a daily basis. […]

p38 MAPK = target: T1, p38 MAPK (Bos taurus, UniProt A6QLR9); format: cell-based, bovine; conditions: BAECs; CO 10,000 ppm
T1 construct: endogenous in cells; host or cells: bovine aortic endothelial cells (BAEC)
T1 sequence (A6QLR9 1-360): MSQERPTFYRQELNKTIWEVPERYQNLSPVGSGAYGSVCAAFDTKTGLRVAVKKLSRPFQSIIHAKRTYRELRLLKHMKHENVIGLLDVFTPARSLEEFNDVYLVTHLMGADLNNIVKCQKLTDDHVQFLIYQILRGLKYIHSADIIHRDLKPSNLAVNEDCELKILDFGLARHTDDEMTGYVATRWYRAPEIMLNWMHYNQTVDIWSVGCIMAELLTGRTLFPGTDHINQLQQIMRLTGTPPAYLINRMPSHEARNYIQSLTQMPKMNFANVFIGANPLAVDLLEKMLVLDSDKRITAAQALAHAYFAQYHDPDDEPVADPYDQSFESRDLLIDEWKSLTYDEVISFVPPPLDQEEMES

[2] = tested on: mouse hearts transplanted into rats; assay: Histomorphometric analysis of infarcted area in transplanted hearts; format: in vivo, BALB/c mouse hearts, Lewis rats; conditions: 3 days after transplantation; SnPPIX treated rats that received exogenous CO
Source text: Grafts were harvested 3 days after transplantation, […], and serially sectioned (5 îm) in toto from the apex to the base. Ten sections were placed per slide in a total of about 20–25 slides. Every fifth slide was stained with hematoxylin and eosin (H&E) for histomorphometric analysis. Two images per slide were captured by using a Nikon Eclipse E600O microscope (Nikon, Melville, N.Y.) connected to a Hitachi 3-CCD Color Camera (model HV-C20; Hitachi, Tokyo, Japan) and to a Power MacintoshO 7300/200 computer (Apple Computer, Cupertino, Calif.) equipped with IPLab Spectrum digital imaging software (Signal Analytics Corporation, Vienna, Va.). About 50 images were captured from each transplanted heart from two to three animals per group. Images were analyzed by manual segmentation, tracing the infarcted and noninfarcted areas from the right and left ventricles in each section. Areas corresponding to infarcted and noninfarcted tissue were calculated by digital imaging software as number of pixels corresponding to those areas. Infarcted and noninfarcted areas were then calculated as percentage of total area. Pooled data for each group, expressed as area in pixels or as percentage of infarction, was analyzed by using ANOVA. […] Results are expressed as mean=SD. […]

HO-1 = assay: Western blot of HO-1 expression in cultured endothelial cells; format: cell-based, mouse; conditions: data not shown
Procedure: Endothelial cells were washed in PBS (pH 7.2), harvested by scraping, and lysed in Laemmli buffer. Electrophoresis was conducted under denaturing conditions with 10% polyacrylamide gels. Proteins were transferred onto a polyvinyldifluoridine membrane (immobilon P; Millipore, Bedford, Mass.) by electroblotting and detected with rabbit polyclonal Abs directed against human HO-1 or HO-2 (StressGen, Victoria, Canada) or é-tubulin (Boehringer Mannheim, Mannheim, Germany). Proteins were visualized by using HRP-conjugated donkey anti-rabbit IgG or goat anti-mouse IgG (Pierce) and the ECL assay (Amersham Life Science, Arlington Heights, Ill.) according to manufacturer's instructions.

[3] = tested on: rat platelets overlaid on mouse 2F–2B endothelial cells; assay: Platelet aggregation assay, platelets overlaid on pretreated endothelial cells; format: cell-based; conditions: endothelial cells pretreated with protoporphyrin 50 μM; ADP 2 μM
Procedure: Mouse 2F–2B endothelial cells were cultured on 0.2% gelatin (Sigma) coated six-well plates in 88% DMEM (Life Technologies), 10% FCS (FCS), 100 U/ml penicillin, and 100 îg/ml streptomycin (Life Technologies). Confluent endothelial cells either were left untreated or were treated with the HO-inducing agent CoPPIX (50 îM; 18 h), the HO inhibitor SnPPIX (50 îM, 18 h), or both CoPPIX (50 îM, 15 h) and SnPPIX (50 îM, 3 h). Platelet-rich plasma was obtained by centrifugation (290-g, 12 min, 19° C.) of normal rat […] in 3.8% sodium citrate. Rat platelets (3–10^8 cells ml) were resuspended in HT buffer (8.9 mM NaHCO3, 0.8 mM KH2PO, 5.6 mM dextrose, 2.8 mM KCl solution, 0.8 mM MgCl2, 129 mM NaCl, 10 mM HEPES). Platelets were overlaid (5 min; 37° C.) on mouse endothelial cells, and platelet aggregation assays were conducted as described before (Kaczmarek et al, J. Biol. Chem. 271:33116, 1996) by using an aggregometer (Chrono-Log, Harestown, Pa.) and ADP (0.5–4 μM) as an agonist.

## [C-]#[O+] [CO, carbon monoxide]
[1]
  time needed to reach normoglycemia (median): 7 days
p38 MAPK
  p38 MAPK activation: activated p38 MAPK even in the absence of TNF-α
[2]
  infarction of the left ventricle: 1.8±3.4%
  infarction of the right ventricle: 8.4±5.3%

## C=Cc1c2[n-]c(c1C)/C=c1\[n-]/c(c(C)c1C=C)=C\c1[n-]c(c(CCC(=O)O)c1C)C=c1[n-]/c(c(C)c1CCC(=O)O)=C\2.[Sn+4] [SnPPIX, tin protoporphyrin IX]
HO-1
  expression of HO-1 in cultured endothelial cells: up-regulated the expression of HO-1
[3]
  platelet aggregation on stimulation by ADP: platelet aggregation was enhanced
